From publication PMC8657793, “Synthesis, In Vitro and In Silico Anticancer Activity of New 4-Methylbenzamide Derivatives Containing 2,6-Substituted Purines as Potential Protein Kinases Inhibitors” (International Journal of Molecular Sciences, 2021)

Tested on: OKP-GS cells
Assay: Annexin-V/propidium iodide apoptosis assay by flow cytometry
Assay type: cell-based, human
Settings: for Living cells: Figure 3; for Level of apoptosis compared with sorafnib / Number of necrotic cells: 72 h; for Number of necrotic cells: 5, 10 and 20 μM
Protocol: Apoptosis is a versatile and extremely effective pathway for cell death. This phenomenon can be caused by internal signals, such as genotoxic stress, or external signals, such as the binding of ligands to death receptors on the cell surface. The induction of apoptosis was studied by measuring the translocation of phosphatidylserine from the cytoplasmic to the extracellular side of the plasma membrane. OKP-GS cells were treated with compound 7 or 10 at 5, 10 and 20 μM for 72 h, after which annexin-V/propidium iodide (PI) binding was measured by flow cytometry (Figure 2).
Tumor cells were plated on a 6-well plate at a density of 100.000 per well for OKP-GS. Test compounds 7 and 10 were added at concentrations of 5, 10, and 20 μM for 72 h. Then, the cells were washed from the culture medium by centrifugation at 1000 rpm for 5 min, washed again with phosphate buffer, then the Annexin V-FITC and PI dyes from the Annexin 5A-FITC Kit (Beckman Coulter, Brea, CA, USA) were added, according to the manufacturer’s instructions. Colored suspensions were incubated for 15 min in the dark on ice and measured on a Cytomics FC500 Beckman Coulter flow cytometer (channels FL1 for Annexin V-FITC and FL4 for PI). Data were analyzed with Kaluza 2.0 Software (Beckman Coulter, Brea, CA, USA).

SMILES	Living cells (5 μM)	Living cells (10 μM)	Level of apoptosis compared with sorafnib (20 μM)	Living cells (20 μM)	Number of necrotic cells [%]
O=C(Nc1cccc(C(F)(F)F)c1)c1ccc(Cn2cnc3c(Cl)nc(Cl)nc32)cc1 [Compound 7, 4-((2,6-Dichloro-9H-purin-9-yl)methyl)-N-(3-(trifluoromethyl)phenyl)benzamide]	83,07	56,68	more than two-fold higher level of apoptosis	23,92	≤ 7.3
Cc1cn(-c2cc(NC(=O)c3ccc(Cn4cnc5c(Cl)nc(Cl)nc54)cc3)cc(C(F)(F)F)c2)cn1 [Compound 10, 4-((2,6-Dichloro-9H-purin-9-yl)methyl)-N-(3-(4-methyl-1H-imidazol-1-yl)-5-(trifluoromethyl)-phenyl)benzamide]	70,22	44,89	more than two-fold higher level of apoptosis	21,99	≤ 7.3
